From patent publication US10160867B2, “Benzoxaborole-containing coating resistant to cellulose-supportable fungus” (THE PENN STATE RESEARCH FOUNDATION, priority 2015, dated 2018)
Values after ≈ are worked out from the molar mass of the structure shown.

Legend:
Alternaria alternata = assay: Painted discs with or without UV irradiation before inoculation (defacement); assay type: cell-based; set-up: key: rating 10 = 0% defacement to 0 = 91-100% defacement; settings: +100 μg/mL in Olympic Home latex paint
Procedure: In a separate study, painted filter paper discs were irradiated with UV light from a 30 watt bulb for 2 hours and then inoculated with Alternaria alternata spores (“+UV” in the table below), or were inoculated without prior UV irradiation (“no UV” in the Table 4). The painted filter papers were incubated as discussed elsewhere herein, evaluated at 13 and 21 days post-inoculation for defacement by fungal growth and compared to similar painted filter paper discs that were not irradiated prior to inoculation.
Samples were evaluated at regular intervals. The intensity of the fungal growth was rated by estimating the percentage of surface defacement using the following ratings: 10: 0% defacement; 9=1-10% defacement; 8=11-20% defacement; 7=21-30% defacement; 6=31-40% defacement; 5=41-50% defacement; 4=51-60% defacement; 3=61-70% defacement; 2=71-80% defacement; 1=81-90% defacement; and 0=91-100% defacement. A grid that divides the circular area into 20 equal sections as shown in FIG. 1 was used to estimate the extent (percent defacement) of fungal growth.

[1] = +UV (30 watt bulb, 2 hours, before inoculation), 13 days
[2] = +UV (30 watt bulb, 2 hours, before inoculation), 21 days

Row | Structure (SMILES) | Average Defacement ± standard deviation for 3 replicates (Alternaria alternata; [1]) | Average Defacement ± standard deviation for 3 replicates (Alternaria alternata; [2]) | Average Defacement ± standard deviation for 3 replicates (Alternaria alternata; no UV, 13 days) | Average Defacement ± standard deviation for 3 replicates (Alternaria alternata; no UV, 21 days) | solubility (Solubility in water) [µg/mL]
1 | OB1OCc2cc(F)ccc21 [Compound B9, 5-Fluoro-1,3-dihydro-2,1-benzoxaborol-1-ol] | 10.0 ± 0.0 | 8.3 ± 2.1 | 10.0 ± 0.0 | 9.0 ± 0.0 | 800 (≈ 5.27 mM)
2 | CCCCNC(=O)OCC#CI [IPBC, 3-Iodo-2-propynylbutylcarbamate] | 9.7 ± 0.6 | 6.0 ± 4.4 | 8.3 ± 2.1 | 4.0 ± 4.0 | –
